From PMC6149683, “In Vitro Investigation of the Interaction of Tolbutamide and Losartan with Human Serum Albumin in Hyperglycemia States” (Molecules : A Journal of Synthetic Chemistry and Natural …, 2017)
Read-outs that look alike come from different tables or passages of the source.

What was measured:
[1] = system: T1, non-glycated (HSA) and glycated (gHSAFRC) human serum albumin, Sudlow's site I and II; test: Binding of fluorescent site-marker probes to glycated versus non-glycated albumin (fluorimetric titration)
T1 construct: human serum albumin (HSA, Lot No. 8234H) with fatty acids (fraction V) was purchased from MP Biomedicals LLC; purchased MP Biomedicals LLC (Illkirch, France) Lot No. 8234H (a lot number; no catalogue number given)

[2] = system: plasma protein; settings: cited from earlier work
[3] = albumin 5 × 10^−6 mol∙L^−1 titrated with probe, 37 °C, Figure 7

Row | SMILES | probe fluorescence / binding with gHSAFRC compared with HSA [1, 3] | also measured
1 | CC(=O)CC(c1ccccc1)c1c(O)c2ccccc2oc1=O (centres unmarked) [WAR, warfarin] | – | probe fluorescence / binding with gHSAFRC compared with HSA [1]: stronger than with non-glycated albumin
2 | CCCCc1nc(Cl)c(CO)n1Cc1ccc(-c2ccccc2-c2nn[nH]n2)cc1 [LOS, (2-butyl-4-chloro-1-{[2′-(1H-tetrazol-5-yl)-4-biphenylyl]methyl}-1H-imidazol-5-yl)methanol] | – | bound with plasma protein [2]: 98.6–98.8%
3 | CN(C)c1cccc2c(S(N)(=O)=O)cccc12 [DNSA, 5-dimethylaminonaphthalene-1-sulfonamide] | no significant difference in the fluorescence intensity | –
4 | CN(C)c1cccc2c(S(=O)(=O)N3CCC[C@H]3C(=O)O)cccc12 [dPro, N-dansyl-L-proline] | stronger for glycated than non-modified albumin | –
5 | CN(C)c1cccc2c(S(=O)(=O)N[C@@H](CCC(N)=O)C(=O)O)cccc12 [dGln, dansyl-L-glutamine] | stronger for glycated than non-modified albumin | –
